In PMC6105845, “Nucleotide Prodrug Containing a Nonproteinogenic Amino Acid To Improve Oral Delivery of a Hepatitis C Virus Treatment” (Antimicrobial Agents and Chemotherapy, 2018):
“And” between values parts separate entries of the source, which are not always exact repeats. Equal values may be shown once. Read-outs that look alike come from different tables or passages of the source.

Key:
[1] = system: HCV GT1a, GT1b and GT2a replicons; assay: HCV replicons GT1a, GT1b, GT2a in Huh-1C cells, summary across genotypes; format: cell-based, hepatitis C virus
Description: (§1) GT1a, GT1b, and GT2a are authentic subgenomic replicons of the indicated strain. Creation of these HCV replicons was reported previously ([7]).
RNA was transcribed in vitro using a MEGAscript […] kit (Ambion, Austin, TX) and transfected into Huh-Lunet and −1C cells using published methods ([21], [22]).
(§2) The EC50s, defined as the concentration at which there was a measured 50% decrease in HCV replicon level, were determined in replicon assay as previously described ([24]). Briefly, replicon cells were seeded into 96-well plates. Compounds were serially diluted in DMSO at 200× final concentrations and then added to the assay plate. Luciferase expression was quantified after 3 days of incubation using a commercial luciferase assay (Promega, Madison, WI). Data were analyzed using GraphPad Prism 6.0 (La Jolla, CA).
(§3) X represents log of compound concentration and Y represents replicon replication as the percentage of DMSO control. EC50s were calculated as an average from at least three independent experiments.

[2] = system: HCV GT1b replicon; assay: HCV GT1b replicon, stably transfected Huh-Lunet cells; format: cell-based, hepatitis C virus; conditions: for EC50: Hepatitis C virus, 72 h, stably transfected Huh-Lunet cells, 3 days
Description: (§4) Primary hepatocytes from humans, hamsters, dogs, and monkeys were purchased from BioreclamationIVT in 12-well plates seeded at confluence (0.88 × 10^6 cells/well). Huh-Lunet cells were obtained from ReBlikon GmbH (Mainz, Germany) ([19]). Huh-1C was derived from a GT1a replicon clone in which HCV replication was cured. All Huh-Lunet- and Huh-1C-based replicon cell lines were cultured in Dulbecco's modified Eagles' medium (DMEM) with GlutaMAX (Invitrogen, Carlsbad, CA) supplemented with 10% fetal bovine serum (FBS; HyClone, Logan, UT) and 100 U/ml penicillin (Invitrogen). Replicon cell lines containing genotype 1a (H77) and 2a (JFH1) were created as previously reported ([20][–][22]). Caco-2 cells were maintained in DMEM with sodium pyruvate, GlutaMAX supplemented with 1% penicillin-streptomycin, 1% nonessential amino acids, and 10% FBS in an incubator set at 37°C, 90% humidity, and 5% CO2.
as §1, §2, §3

[3] = system: chimeric HCV replicons GT2b, GT3a, GT4a, GT5a, GT6a; assay: Chimeric replicons with NS5b of GT2b, GT3a, GT4a, GT5a, GT6a in GT1b background, transiently transfected Huh-1C cells; format: cell-based, hepatitis C virus
[4] = Plasma pharmacokinetics in pentagastrin-pretreated portal vein-cannulated dogs; format: in vivo, male beagle dogs; conditions: for bioavailability / AUC(0-t) / Cmax: male, beagle; for bioavailability / Fa (fraction absorbed): oral 5 mg/kg vs 0.5 mg/kg intravenous infusion; for bioavailability: read-out: F (oral bioavailability)
Description: Plasma and liver pharmacokinetic studies were completed as described previously ([8]). Briefly, intact Golden Syrian hamsters, Sprague-Dawley rats, and beagle dogs (intact and portal vein cannulated) were orally administered a single dose of GS2 or GS2(R+S) in solution formulations at between 5 and 50 mg/kg of body weight. Similarly, studies were completed by administering GS-6620 or its 1:1 diastereomeric mixture in solution or micronized suspension formulations at between 5 and 21.1 mg/kg. Animal doses were chosen to correspond to surface area-adjusted human doses targeted for clinical development (150 to 500 mg). In order to understand hepatic extraction (EH), fraction absorbed (Fa), and oral bioavailability (F), intravenous (i.v.) and oral (p.o.) studies were conducted with GS2 and GS-6620 in intact and portal vein-cannulated dogs. Intravenous dosing used solution formulations at 0.5 mg/kg of the respective prodrugs. Animals were housed and handled in accordance with the Guide for the Care and Use of Laboratory Animals ([23]). The protocols were reviewed and approved by the Institutional Animal Care and Use Committees (IACUC).
Plasma samples were prepared through protein precipitation extraction by adding acetonitrile to a final concentration of 70% containing internal standard (5-iodotubericidin). Samples were dried completely under a stream of nitrogen at 40°C and reconstituted with 0.2% formic acid in water to 3 times the original volume of plasma for LC-MS/MS analysis. Liver samples were prepared by sectioning into smaller pieces and collecting into preweighed 15-ml conical tubes kept on dry ice. Ice-cold extraction buffer (0.1% KOH and 67 mM EDTA in 70% methanol containing chloro-ATP as an internal standard) was added to ∼0.5 g of each liver sample. The mixtures were promptly homogenized using an Omni-Tip TH with disposable, hard tissue homogenizer probes (Omni International). Aliquots of the homogenate were filtered by using 0.2-μm 96-well polypropylene filter plates (Varian Captiva). The filtrates were evaporated to dryness and reconstituted with an equal volume of 1 mM ammonium phosphate buffer (pH 7) prior to LC-MS/MS analysis. Plasma and liver samples were analyzed on a Sciex API-4000 (Applied Biosystems, Foster City, CA) LC-MS/MS instrument. Analytes in plasma samples were separated on a 4-μm, 150- by 2-mm Synergi Max-RP column (Phenomenex, Torrance, CA) using a mobile phase containing 0.2% formic acid and a linear gradient from 2% to 100% acetonitrile at a flow rate of 250 μl/min over 7 min. Analytes in liver samples were separated using a 50- by 2-mm by 2.5-μm Luna C18(2) HST column (Phenomenex, Torrance, CA). A multistage linear gradient from 10% (mobile phase A) to 50% acetonitrile (mobile phase B) in a mobile phase containing 3 mM ammonium formate (pH 5.0) with 10 mM dimethylhexylamine at a flow rate of 0.15 ml/min was used to elute the analytes.
Noncompartmental pharmacokinetic parameters were calculated using WinNonlin 5.01 (Pharsight Corporation, Mountain View, CA). Equations for calculating hepatic extraction (EH; equation 2), fraction absorbed (Fa; equation 3), and oral bioavailability (F; equation 4) have been presented previously ([25]). (2) EH=AUCPO,portal vein−AUCPO,jugular vein/AUCPO,portal vein (3) Fa=F/1−EH (4) F=AUCPO,jugular vein÷DosePO/AUCIV÷DoseIV

[5] = system: HCV GT2a replicon; assay: HCV GT2a replicon, stably transfected Huh-Lunet cells; format: cell-based, hepatitis C virus; conditions: for EC50: Hepatitis C virus, 72 h, stably transfected Huh-Lunet cells, 3 days
Description: as §4, §1, §2, §3

[6] = dog, plasma (jugular vein), oral 5 mg/kg, GS2 in solution, GS-6620 in suspension of micronized material, read-out: AUC0–t jugular
[7] = dog, plasma (jugular vein), oral 5 mg/kg, GS2 in solution, GS-6620 in suspension of micronized material, read-out: Cmax jugular
[8] = dog, plasma (portal vein), oral 5 mg/kg, GS2 in solution, GS-6620 in suspension of micronized material, read-out: AUC0–t portal
[9] = dog, plasma (portal vein), oral 5 mg/kg, GS2 in solution, GS-6620 in suspension of micronized material, read-out: Cmax portal
[10] = dog, plasma, 0.5-mg/kg intravenous infusion (30 min), n = 3, read-out: AUC0–t following intravenous infusion

Structure (SMILES)	potency relative to the fast-eluting isomer (more potent) ([1]; GT1a, 1b, 2a, Huh-1C)	activity relative to GS-6620, average across the three genotypes ([1]; Huh-1C cells) [fold]	Fold (GS2/GS-6620) ([2]; EC50 ratio, Huh-Lunet)	EC50 [2] [nM]	EC50 ([3]; Hepatitis C virus, read-out: potency) [nM]	relative potency to GS-6620 ([3]; chimeric replicons GT2b-GT6a, Huh-1C) [fold]	Fa in dog higher than corresponding L-alanine-containing prodrug ([4]; dog, in vivo)	bioavailability ([4]; dog, plasma (jugular vein)) [%]	AUC(0-t) [4, 6] [µM·h]	Cmax [4, 7] [nM]	AUC(0-t) [4, 8] [µM·h]	Cmax [4, 9] [nM]	AUC(0-t) [4, 10] [µM·h]	EH (hepatic extraction) ([4]; oral 5 mg/kg) [%]	maximal portal concentration lower than GS-6620 ([4]; oral 5 mg/kg)	Fa (fraction absorbed) [4]	Fold (GS2/GS-6620) ([5]; EC50 ratio, GT2a, Huh-Lunet)	EC50 ([5]; GT2a) [nM]	time by which plasma concentration decreased to undetectable ([4]; oral 5 mg/kg, postdose) [h]	difference in activity across the 2a replicons ([5]; Huh-Lunet vs Huh-1C 2a replicons) [fold]
CC(C)OC(=O)C(C)(C)N[P@](=O)(OC[C@H]1O[C@@](C#N)(c2ccc3c(N)ncnn23)[C@](C)(O)[C@@H]1O)Oc1ccccc1 [GS2]	approximately 4 fold	≤ 3	7.2	2200	91 to 158	≤ 2	more than 5 fold	13	0.44 ± 0.09	430 ± 90	1.77 ± 0.26	1610 ± 350	0.34	75	approximately 2 fold	51.6% and 52%	50	25000		
CC(C)OC(=O)[C@H](C)N[P@](=O)(OC[C@H]1O[C@@](C#N)(c2ccc3c(N)ncnn23)[C@](C)(O)[C@@H]1OC(=O)C(C)C)Oc1ccccc1 [GS-6620, reference compound]				300 ± 140				15	0.33 ± 0.28	620 ± 430	1.68 ± 0.8	3650 ± 860	0.2	80		79%		500 ± 160	≤ 2	≤ 19
